The source of these data is publication PMC10658973, “Thiazolopyrimidine derivatives as novel class of small molecule tyrosinase inhibitor” (BMC Chemistry, 2023).

Data set [1] addresses tyrosinase. The note with it: previously reported, cited from earlier work.
In data set [2] the target is tyrosinase (EC 1.14.18.1) (Agaricus bisporus, UniProt C7FF04). Kind of data set: Tyrosinase inhibitory assay (L-Dopa oxidation). It counts as biochemical. The note with it: for IC50: tyrosinase, L-Dopa substrate, mean of three independent experiments.
Sequence of tyrosinase (EC 1.14.18.1) (C7FF04 1-392): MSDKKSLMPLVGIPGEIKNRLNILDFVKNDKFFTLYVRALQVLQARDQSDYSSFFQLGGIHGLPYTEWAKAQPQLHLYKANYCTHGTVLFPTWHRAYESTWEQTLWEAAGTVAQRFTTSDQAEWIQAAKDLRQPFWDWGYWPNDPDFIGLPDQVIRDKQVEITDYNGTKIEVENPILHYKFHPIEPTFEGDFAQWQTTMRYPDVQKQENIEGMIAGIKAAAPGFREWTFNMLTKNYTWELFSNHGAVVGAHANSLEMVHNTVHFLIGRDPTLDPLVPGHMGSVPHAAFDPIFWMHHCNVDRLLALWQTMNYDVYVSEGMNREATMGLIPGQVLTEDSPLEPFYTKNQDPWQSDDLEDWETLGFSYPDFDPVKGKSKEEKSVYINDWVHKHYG
Data set [3] deals with hTYR. On the set-up: method as in PMID 29427586. The settings on record: previously reported; cited from earlier work.
The subject of data set [4] is mTYR. On the set-up: method as in PMID 29427586. The settings on record: previously reported; cited from earlier work.
In data set [5] the test system is tyrosinase. Kind of data set: UV/VIS spectra of tyrosinase with L-Dopa and inhibitor. The note with it: 475 nm, L-Dopa + tyrosinase, various concentrations of inhibitor. It counts as biochemical. On the procedure: UV spectra of compound 6a, tyrosinase and L-Dopa were analyzed separately. […] However, when L-Dopa was added to tyrosinase without an inhibitor, the highest absorbance was observed, confirming the generation of dopachrome.

The test system of data set [6] is tyrosinase. Kind of data set: Enzyme kinetic studies (Lineweaver-Burk, L-Dopa substrate). It counts as biochemical. The source says:
The Lineweaver–Burk reciprocal plot was provided by plotting 1/V against 1/[S] at variable concentrations of the L-Dopa.

“Also recorded” adds a separate entry of the source. Where two headings read alike, the source gives them in different places.

As to `NC(=S)N/N=C/c1cc(COC(=O)c2ccccc2)cs1` [G], the IC50 in data set [1] is 0.068 µM.

The molecule `CCOC(=O)C1=C(C)N=C2SC=C(C)N2C1c1ccc(OC)cc1` (centres unmarked) [Compound 6i, Ethyl 5-(4-methoxyphenyl)-3,7-dimethyl-5H-thiazolo[3,2-a]pyrimidine-6-carboxylate] showed a melting point of 111 to 112 °C. The molecule also registered an IC50 in data set [2] of 35.7 µM.

In turn, `CCOC(=O)C1=C(C)N=C2SC=C(C)N2C1c1ccc(C)cc1` (centres unmarked) [Compound 6h, Ethyl 3,7-dimethyl-5-(p-tolyl)-5H-thiazolo[3,2-a]pyrimidine-6-carboxylate] yielded a melting point of 114 to 115 °C. In addition, the “tyrosinase inhibitory activity (in words)” value in data set [2] (SAR discussion) is on record as “complete loss of activity”. In data set [2], the IC50 was > 250 µM.

As to `CCCCC(=O)NC(=S)Nc1ccc(OC)cc1` [B], the IC50 in data set [1] is 1.56 µM; in data set [1] (listed as compound B), 5.4 µM.

As to `Nc1nc(-c2ccc(O)cc2O)cs1` [Compound D], the IC50 in data set [1] was 51 µM.

In the case of `CCOC(=O)C1=C(C)N=C2SC=C(C)N2C1c1ccccc1F` (centres unmarked) [Compound 6b, Ethyl 5-(2-fluorophenyl)-3,7-dimethyl-5H-thiazolo[3,2-a]pyrimidine-6-carboxylate], the melting point is 111 to 112 °C. This molecule also came in with a 50% inhibitory concentration (IC50) in data set [2] of 40.8 µM.

For the molecule `CC(C)C(=O)Nc1nc(-c2ccc(O)cc2O)cs1` [Compound E], the IC50 is 1.1 µM in data set [3] and 108 µM in data set [4].

Molecule `CCOC(=O)C1=C(C)N=C2SC=C(C)N2C1c1cccc(Br)c1` (centres unmarked) [Compound 6f, Ethyl 5-(3-bromophenyl)-3,7-dimethyl-5H-thiazolo[3,2-a]pyrimidine-6-carboxylate] showed a melting point of 112 to 113 °C. The IC50 in data set [2] is 85.3 µM.

For `CCOC(=O)C1=C(C)N=C2SC=C(C)N2C1c1cccc(F)c1` (centres unmarked) [Compound 6c, Ethyl 5-(3-fluorophenyl)-3,7-dimethyl-5H-thiazolo[3,2-a]pyrimidine-6-carboxylate], the melting point lay in the range of 113 to 114 °C. The molecule also gave an IC50 in data set [2] of 56 µM.

For the molecule `CCOC(=O)C1=C(C)N=C2SC=C(C)N2C1c1cccc([N+](=O)[O-])c1` (centres unmarked) [Compound 6g, Ethyl 3,7-dimethyl-5-(3-nitrophenyl)-5H-thiazolo[3,2-a]pyrimidine-6-carboxylate], the melting point was in the range of 151 to 152 °C. Moreover, in data set [2], the IC50 is 45.2 µM.

Take `Cn1cc[nH]c1=S` [C, methimazole]: the IC50 in data set [1] is 114 µM.

`CCOC(=O)C1=C(C)N=C2SC=C(C)N2C1c1ccccc1` (centres unmarked) [Compound 6a, Ethyl 3,7-dimethyl-5-phenyl-5H-thiazolo[3,2-a]pyrimidine-6-carboxylate]: the melting point lay within 110 to 111 °C. Moreover, the “absorbance intensity (dopachrome formation)” value in data set [5] is recorded as “decreased dose-dependently”. Further, in data set [2], half-maximal inhibition (IC50) was put at 28.5 µM. Besides, the type of inhibition entry in data set [6] (Lineweaver-Burk plot, L-Dopa substrate) is “noncompetitive inhibitor; also recorded: noncompetitive mode of inhibition”. In data set [6] (inhibitor concentration 5 µM), the Km amounted to 690 µM and the Vmax stood at 22.22 mM/min. In addition, in data set [6] (inhibitor concentration 10 µM), the Km is 680 µM and the maximal velocity (Vmax) is 12.66 mM/min. In data set [6] (inhibitor concentration 25 µM), the Michaelis-Menten constant (Km) was found to be 650 µM and the Vmax was 10.35 mM/min. For the same molecule, in data set [6] (inhibitor concentration 50 µM), the Km came out at 690 µM and the Vmax was 8.40 mM/min. Besides, in data set [6] (inhibitor concentration 100 µM), the Km came out at 660 µM and the Vmax was 5.15 mM/min.

`CCOC(=O)C1=C(C)N=C2SC=C(C)N2C1c1ccccc1Cl` (centres unmarked) [Compound 6d, Ethyl 5-(2-chlorophenyl)-3,7-dimethyl-5H-thiazolo[3,2-a]pyrimidine-6-carboxylate] gave a melting point of 114 to 115 °C. In data set [2], this molecule gave an IC50 of 34.2 µM.

Consider `CCOC(=O)C1=C(N)Oc2c(ccc3ccccc23)C1c1ccc(N(C)C)cc1` (centres unmarked) [F], for which the half-maximal inhibitory concentration (IC50) in data set [1] was 34.1 µM.

In turn, `CCOC(=O)C1=C(C)N=C2SC=C(C)N2C1c1ccc(Cl)cc1` (centres unmarked) [Compound 6e, Ethyl 5-(4-chlorophenyl)-3,7-dimethyl-5H-thiazolo[3,2-a]pyrimidine-6-carboxylate] gave a melting point of 113 to 114 °C. The molecule also gave an IC50 in data set [2] of 37.7 µM.

`CCOC(=O)C1=C(C)N=C2SC=C(C)N2C1c1ccc(O)c(OC)c1` (centres unmarked) [Compound 6j, Ethyl 5-(4-hydroxy-3-methoxyphenyl)-3,7-dimethyl-5H-thiazolo[3,2-a]pyrimidine-6-carboxylate] showed a melting point of 121 to 122 °C. Moreover, the IC50 in data set [2] came to 40.8 µM.
